Patent US7998978B2 (Pfizer Inc., priority 2006, dated 2011)

Target: T1, JNK1α1 (Homo sapiens, UniProt P45983)
T1 construct: catalytic domain containing amino acids 1-364 and N-terminal hexahistidine tag; hexahistidine (His6) (N); made in house; host or cells: E. coli BL21 (DE3)
Experiment: Coupled spectrophotometric (PK/LDH) JNK1α1 assay: % inhibition and Ki determination
Type: biochemical
Conditions: @1 uM; read-out: % Inhibition JNK-1
Description: % Inhibition and Ki Determination
A coupled spectrophotometric assay, coupling JNK1α1 activity to the oxidation of β-NADH to NAD+ through the action of pyruvate kinase (PK) and lactic dehydrogenase (LDH), was used to determine the potency (percent inhibition at 1 or 10 μM or Ki) of compounds against JNK1α1 (Genbank Accession Number: L26318). […] The reaction was monitored by following the decrease in absorbance at 340 nm. The initial reaction rate was determined by the slope of the change in absorbance. To calculate percent inhibition the rate of the reaction in the presence of 1 or 10 μM compound was compared to the rate of the reaction with only DMSO multiplied by 100 percent. Note, the background rate of the above reaction in the presence of 10 μM PHA-00738186 was subtracted from all rates. […] Y=(−X+Eo−(Ki*(1+A/Km))+((X−Eo+(Ki*(1+A/Km)))^2+4*Eo*(Ki*(1+A/Km)))^0.5)*(Vm*A/(Km+A)/(2*Eo)) Formula: • Parameters: Eo, Ki, A, Km, Vo • Y is initial reaction velocity; • X is inhibitor concentration; • A is [ATP]; • Ki is inhibition constant; • Vm is Vmax; • Eo is total (initial) enzyme concentration; • Km is ATP Km;
The compounds were prepared in 100% DMSO at a 40× concentration. For percent inhibition experiments this would be 400 or 40 μM for 10 and 1 μM final concentration, respectively. For the Ki determination 3× serial dilutions were made starting at 4 mM (100 μM at 1×) in DMSO. A total of 11 concentrations were used for the analysis. The compounds were added to the reaction plate first. Next, a solution containing the HEPES, MgCl2, DTT, peptide substrate, NADH, PEP, PK/LDH enzyme, and JNK1α1—364nHis enzyme was added to the assay plate. The plate was incubated at room temperature for 15 minutes. Then the plate was warmed to 30° C. for 5 minutes. The reaction was initiated with the addition of ATP. The reaction was run in a plate reader at 30° C. for 20 minutes with absorbance readings made about every 10 seconds.
The column with “#” heading refers to compound number as exemplified in the Examples section. The column with “Ki” heading refers to Ki (in nM). The column with “% Inhibition” heading refers to percent inhibition of JNK-1 at 1 μM or 10 μM (in %) unless otherwise stated. ND refers to no data was taken.

T1 sequence (P45983 1-364): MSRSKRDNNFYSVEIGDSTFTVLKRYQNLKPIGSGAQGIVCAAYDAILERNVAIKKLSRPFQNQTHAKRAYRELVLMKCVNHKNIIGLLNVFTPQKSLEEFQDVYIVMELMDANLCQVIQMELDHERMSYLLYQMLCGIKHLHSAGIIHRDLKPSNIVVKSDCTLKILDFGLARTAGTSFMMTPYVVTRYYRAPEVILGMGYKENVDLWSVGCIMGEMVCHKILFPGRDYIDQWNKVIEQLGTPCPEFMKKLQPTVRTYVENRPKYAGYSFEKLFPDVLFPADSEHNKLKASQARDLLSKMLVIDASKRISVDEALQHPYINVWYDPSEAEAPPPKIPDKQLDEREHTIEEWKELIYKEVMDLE

Point of comparison: `Cc1noc(C)c1COc1ccc2cnc(N[C@H]3CC[C@H](O)CC3)nc2c1` [Example 295, trans-4-({7-[(3,5-dimethylisoxazol-4-yl)methoxy]quinazolin-2-yl}amino)cyclohexanol], inhibition at 1 µM 71%. Against it:
- O=C(NCc1ccncc1)c1cccc2cnc(N[C@H]3CC[C@H](O)CC3)nc12 [Example 473, 2-[(trans-4-hydroxycyclohexyl)amino]-N-(pyridin-4-ylmethyl)quinazoline-8-carboxamide] — lower, 34%
- CCc1ccc(C)nc1NC(=O)c1cccc2cnc(N[C@H]3CC[C@H](O)CC3)nc12 [Example 314, N-(3-ethyl-6-methylpyridin-2-yl)-2-[(trans-4-hydroxycyclohexyl)amino]quinazoline-8-carboxamide] — lower, 11%
- CCN1CCC(Oc2ccc3cnc(N[C@H]4CC[C@H](O)CC4)nc3c2)C1 (stereo partly drawn) [Example 278, trans-4-({7-[(1-ethylpyrrolidin-3-yl)oxy]quinazolin-2-yl}amino)cyclohexanol] — lower, 27%
- Cc1c(C(C)NC(=O)c2cccc3cnc(N[C@H]4CC[C@H](O)CC4)nc23)cnn1C (stereo partly drawn) [Example 479, N-[1-(1,5-dimethyl-1H-pyrazol-4-yl)ethyl]-2-[(trans-4-hydroxycyclohexyl)amino]quinazoline-8-carboxamide] — lower, 13%
- O=C(NCCO)c1ccc2cnc(NC3CCCC3)nc2c1 [Example 427, 2-(cyclopentylamino)-N-(2-hydroxyethyl)quinazoline-7-carboxamide] — lower, 21%
- O=C(NCCc1cn2cccnc2n1)c1cccc2cnc(N[C@H]3CC[C@H](O)CC3)nc12 [Example 499, 2-[(trans-4-hydroxycyclohexyl)amino]-N-(2-imidazo[1,2-a]pyrimidin-2-ylethyl)quinazoline-8-carboxamide] — lower, 8%
- O=C(NC1CCCOC1)c1cccc2cnc(N[C@H]3CC[C@H](O)CC3)nc12 (stereo partly drawn) [Example 488, 2-[(trans-4-hydroxycyclohexyl)amino]-N-(tetrahydro-2H-pyran-3-yl)quinazoline-8-carboxamide] — lower, 40%
- O[C@H]1CC[C@H](Nc2ncc3ccc(OC[C@@H]4CCCN5CCCC[C@H]45)cc3n2)CC1 [Example 283, trans-4-({7-[(1R,9aR)-octahydro-2H-quinolizin-1-ylmethoxy]quinazolin-2-yl}amino)cyclohexanol] — lower, 33%

Same assay, conditions: @10 uM; read-out: % Inhibition JNK-1

Point of comparison: `Cc1cc(C)nc(NC(=O)c2cccc3cnc(N[C@H]4CC[C@H](O)CC4)nc23)n1` [Example 313, N-(4,6-dimethylpyrimidin-2-yl)-2-[(trans-4-hydroxycyclohexyl)amino]quinazoline-8-carboxamide], inhibition at 10 µM 71%. Against it:
- COc1ccc(CNc2cc3cc(-c4cn[nH]c4)ccc3cn2)cn1 [Example 231, N-[(6-methoxypyridin-3-yl)methyl]-6-(1H-pyrazol-4-yl)isoquinolin-3-amine] — lower, 43%
- CC(C)Nc1ncc2ccc(C(=O)NC(C)(C)CO)cc2n1 [Example 440, N-(2-hydroxy-1,1-dimethylethyl)-2-(isopropylamino)quinazoline-7-carboxamide] — lower, 48%
- c1ccc(Cn2cccn2)c(CNc2cc3cc(-c4cn[nH]c4)ccc3cn2)c1 [Example 233, 6-(1H-pyrazol-4-yl)-N-[2-(1H-pyrazol-1-ylmethyl)benzyl]isoquinolin-3-amine] — lower, 46%
- O=C(Nc1ccnn1Cc1ccccc1)c1cccc2cnc(N[C@H]3CC[C@H](O)CC3)nc12 [Example 311, N-(1-benzyl-1H-pyrazol-5-yl)-2-[(trans-4-hydroxycyclohexyl)amino]quinazoline-8-carboxamide] — lower, 36%

Same assay, conditions: JNK-1

Point of comparison: `COC1CCC(C(=O)Nc2cc3cc(-c4cn[nH]c4)ccc3cn2)CC1` (stereo not drawn) [Example 28, 4-methoxy-N-[6-(1H-pyrazol-4-yl)isoquinolin-3-yl]cyclohexanecarboxamide], Ki 32 nM. Against it:
- CCCC(CO)NC(=O)c1ccc2cnc(N[C@H]3CC[C@H](O)CC3)nc2c1 (stereo partly drawn) [Example 332, 2-[(trans-4-hydroxycyclohexyl)amino]-N-[1-(hydroxymethyl)butyl]quinazoline-7-carboxamide] — 13-fold higher, 424 nM
- O[C@H]1CC[C@H](Nc2ncc3ccc(OC4CCOC4)cc3n2)CC1 (stereo partly drawn) [Example 144, trans-4-{[7-(tetrahydrofuran-3-yloxy)quinazolin-2-yl]amino}cyclohexanol] — 4-fold higher, 127 nM
- CN([C@H]1CC[C@H](Nc2ncc3cccc(C(=O)N[C@@H]4COC[C@H]4O)c3n2)CC1)S(C)(=O)=O (relative stereo) [Example 141, N-[(trans)-4-hydroxytetrahydrofuran-3-yl]-2-({trans-4-[methyl(methylsulfonyl)amino]cyclohexyl}amino)quinazoline-8-carboxamide] — within 1.5-fold, 29 nM
- O=C(NC1CCCOC1)c1ccc2cnc(N[C@H]3CC[C@H](O)CC3)nc2c1 (stereo partly drawn) [Example 353, 2-[(trans-4-hydroxycyclohexyl)amino]-N-(tetrahydro-2H-pyran-3-yl)quinazoline-7-carboxamide] — 37-fold higher, 1170 nM
- O=C(NC(CO)c1ccccn1)c1ccc2cnc(N[C@H]3CC[C@H](O)CC3)nc2c1 (stereo partly drawn) [Example 100, 2-[(trans-4-hydroxycyclohexyl)amino]-N-(2-hydroxy-1-pyridin-2-ylethyl)quinazoline-7-carboxamide] — 3.8-fold higher, 120 nM
- O=C(Cc1ccccc1)Nc1cc2cc(-c3cn[nH]c3)ccc2cn1 [Example 6, 2-phenyl-N-[6-(1H-pyrazol-4-yl)isoquinolin-3-yl]acetamide] — within 1.5-fold, 39 nM
- CC(=O)N[C@H]1CC[C@H](Nc2ncc3ccc(OC4CCOC4)cc3n2)CC1 (stereo partly drawn) [Example 164, N-(trans-4-{[7-(tetrahydrofuran-3-yloxy)quinazolin-2-yl]amino}cyclohexyl)acetamide] — 13-fold higher, 416 nM
- O=C(NCCO)c1ccc2cnc(N[C@H]3CC[C@H](O)CC3)nc2c1 [Example 346, 2-[(trans-4-hydroxycyclohexyl)amino]-N-(2-hydroxyethyl)quinazoline-7-carboxamide] — 30-fold higher, 945 nM
- CC(C)(C)OC(=O)NC(CC(=O)Nc1cc2cc(-c3cn[nH]c3)ccc2cn1)c1c(F)cccc1F (stereo not drawn) [Example 31, tert-butyl (1-(2,6-difluorophenyl)-3-oxo-3-{[6-(1H-pyrazol-4-yl)isoquinolin-3-yl]amino}propyl)carbamate] — 11-fold lower, 3 nM
- c1cc(CNc2cc3cc(-c4cn[nH]c4)ccc3cn2)cc(-n2cccn2)c1 [Example 224, 6-(1H-pyrazol-4-yl)-N-[3-(1H-pyrazol-1-yl)benzyl]isoquinolin-3-amine] — 110-fold higher, 3370 nM
- CC(C)Nc1ncc2cccc(OC3CCOC3)c2n1 (stereo not drawn) [Example 172, N-isopropyl-8-(tetrahydrofuran-3-yloxy)quinazolin-2-amine] — 110-fold higher, 3570 nM
- CC(C)C[C@@H](CO)NC(=O)c1ccc2cnc(NC3CCC3)nc2c1 [Example 397, 2-(cyclobutylamino)-N-[(1S)-1-(hydroxymethyl)-3-methylbutyl]quinazoline-7-carboxamide] — 13-fold higher, 428 nM
- CC(=O)N[C@H]1CC[C@H](Nc2ncc3cccc(C(=O)N[C@@H]4COC[C@H]4O)c3n2)CC1 (relative stereo) [Example 140, 2-{[trans-4-(acetylamino)cyclohexyl]amino}-N-[(trans)-4-hydroxytetrahydrofuran-3-yl]quinazoline-8-carboxamide] — 1.6-fold higher, 52 nM
- CNC(=O)c1cccc2cnc(N[C@H]3CC[C@H](O)CC3)nc12 [Example 114, 2-[(trans-4-hydroxycyclohexyl)amino]-N-methylquinazoline-8-carboxamide] — 48-fold higher, 1550 nM
- O[C@H]1CC[C@H](Nc2ncc3ccc(OCc4ccccn4)cc3n2)CC1 [Example 153, trans-4-{[7-(pyridin-2-ylmethoxy)quinazolin-2-yl]amino}cyclohexanol] — 5.8-fold higher, 185 nM
- O=C(N[C@H](CO)Cc1ccccc1)c1ccc2cnc(N[C@H]3CC[C@H](O)CC3)nc2c1 [Example 402, N-[(1S)-1-benzyl-2-hydroxyethyl]-2-[(trans-4-hydroxycyclohexyl)amino]quinazoline-7-carboxamide] — 19-fold higher, 605 nM
- O=C(NCCO)c1cccc2cnc(N[C@H]3CC[C@H](O)CC3)nc12 [Example 108, 2-[(trans-4-hydroxycyclohexyl)amino]-N-(2-hydroxyethyl)quinazoline-8-carboxamide] — 3.9-fold higher, 126 nM
- O=C(Cn1cnnn1)Nc1cc2cc(-c3cn[nH]c3)ccc2cn1 [Example 48, N-[6-(1H-pyrazol-4-yl)isoquinolin-3-yl]-2-(1H-tetrazol-1-yl)acetamide] — 2.1-fold lower, 15 nM
